Source: patent US8704037B2, “Targeted cell death” (priority 2007, dated 2014)

How the values were obtained:
[1] = system: cells infected with virus encoding iCP9; assay: Cell Death Detection ELISA Plus after virus dilutions and CID; assay type: cell-based; settings: various dilutions of iCP9 virus, 4 hours after CID
Method: FIG. 6 is a graph showing cells exposed to various dilutions of virus encoding the iCP9 gene and then CID was added to the culture media. 4 hours later, Apoptosis ELISA was performed. […] Thus apoptosis correlated with iCP9 gene expression. X-axis is virus dilution. Y-axis is ELISA absorption at 405 nm.
(§1) EGFP is also produced from the same viral plasmid and promoter. […] However, cells not transfected with virus (EGFP negative) persisted in culture. […] A Cell Death Detection ELISA Plus (Roche Inc) was also performed to determine the level of apoptosis in culture after cells infected with various dilutions of virus were exposed to CID.

[2] = system: infected region of the CNS; assay: pΔmbpICP9/mEGFP virus applied to the CNS, then intraperitoneal CID; assay type: in vivo, rat; settings: CID via intraperitoneal injection after virus injection
Method: The virus described above, pΔmbpICP9/mEGFP, which contains the inducible caspase 9 sequence was applied to the CNS of adult rats to create an in vivo model of CNS demyelination. Administration of the viral vector allowed effective transfer of genetic information in a variable area of parenchyma based on the rate of administration (convective distribution) and viral titer. […] First, adult Fischer rats were anaesthetized by intraperitoneal injection of ketamine hydrochloride (80 mg/kg) and xylazine ([…]) and placed in a stereotactic frame. A midline scalp incision is made. Access to brain parenchyma was accomplished by placement of a right-sided burr hole through the skull, at various predetermined coordinates depending on the desired location of the lesion. […] The volume of viral vector (e.g., lentivirus) delivered depends upon the infection efficacy as determined herein and the target area size. After injection, the needle is left in place for five minutes and then slowly withdrawn over the next four minutes. The skin was closed with sutures.
For virus administration to the spinal cord an incision was made in the thoracic spine followed by a lamenectomy to expose the spinal cord. A No. 32S-gauge needle was passed into the posterior column at predetermined coordinates.

[3] = system: MBP+ cells (oligodendrocytes); assay: Mixed cortical cultures infected with pLpMBP(iCP9)MG and exposed to CID; assay type: cell-based, rat
Method: High density mixed cortical cultures were established after isolation of cerebral cortices from 3 Fischer rats as previously described. Cerebral cortices were removed and place in ice-cold Hanks' balanced salt solution, centrifuged and digested with trypsin at 37° for 10 minutes. Tissue was centrifuged and resuspended in minimal essential medium with Earle's salt (Invitrogen) containing heat-inactivated fetal bovine serum and horse serum. Cell suspension was passed through cell strainers and plated. After three hours the medium is changed to Neurobasal medium supplemented with B27 MinusAO (Invitrogen). Cultures were maintained for seven days and then immunohistochemical staining was performed to verify the composition of the cultures.
The mixed primary cortical cultures (consisting of all CNS cell types) were infected with pLpMBP(iCP9)MG and exposed to CID and then analyzed for cell death of oligodendrocytes (MBP+ cells). The MBP promoter was designed to induce cell death only in MBP+ cells, the majority of which are mature oligodendrocytes.

[4] = system: primary oligodendrocyte cultures; assay: CID-induced cell death in primary oligodendrocyte cultures transduced with iCP9 virus; assay type: cell-based, rat; settings: CID 10 nM; iCP9-expressing primary oligodendrocyte cultures; fluorescent microscope and Methylene Blue viability staining
Method: To induce timely cell death. Collected virus was used to transduce primary oligodendrocyte cultures that have been established. Cells were cultured and evaluated using fluorescent microscopy for the expression of GFP. The extent of GFP positive cells correlated with the viral infection efficacy. Cell protein isolation was conducted and protein isolates were subjected to Western blot transfer to detect stable expression of the iCP9 protein. The resultant membrane was probed with anti-caspase 9 antibody (R&D Systems Inc. #AF8301). Once the stable expression of iCP9 was confirmed at the protein level with Western blot techniques, the CID was applied to these cells in culture at a 10 nM concentration. […] Cell death was detected by viewing cultures under the fluorescent microscope and by using Methylene Blue (Sigma) viability staining of cells in culture after exposure to the CID. All experiments were run in parallel using the astrocyte-derived U87 cell line as a negative control.
Establish primary oligodendrocyte cultures. […] The status of cellular differentiation was monitored by noting the change in cellular morphology in culture. […]
Once this system and differentiation pattern was confirmed, A2B5^+ primary cell cultures were cultured in pΔmbpICP9/mEGFP viral supernatant for 8 hours. […] Infected cells expressed EGFP and were readily identified using the proper fluorescent filter system. […]

[5] = system: primary oligodendrocyte cultures; settings: pΔmbpICP9/mEGFP virus; based on published data in other cell types (Straathof et al., 2005); cited from earlier work
GFAP+ cells (astrocytes) [6] = assay: Pan purified GFAP+ cultures infected with pLpGFAP(iCP9)MG and exposed to CID; assay type: cell-based; settings: 4 hours after CID
Excerpt: To test the specificity of the GFAP promoter system, GFAP+ pan purified cultures (cultures of purified astrocytes) were transfected with pLpGFAP(iCP9)MG and exposed to CID.

GFAP+ cells (astrocytes) [7] = assay: pLpGFAP(iCP9)MG injected into corpus callosum, then CID into ipsilateral ventricle; assay type: in vivo, rat; settings: 24 hours after CID
Method: The system was tested in vivo to ensure that cell specific apoptosis could be induced and the timing of cell ablation controlled as it was in vitro. To this end, virus was injected into the corpus callosum of adult Fischer rats and then three weeks later CID was administered into the ipsilateral ventricle. Rats were sacrificed 24-hours thereafter, brains removed in whole, fixed and cyrosectioned for analysis. […] The TUNEL (TdT-mediated dUTP-X nick end-labeling) system adds a tag on to DNA that has been fragmented during the apoptosis cascade allowing for labeling using standard immunohistochemistry. Thin sections derived from control rats receiving glycerol rather than CID were TUNEL negative. Consecutive thin sections were then stained with anti-GFAP antibody to identify astrocytes. […] This confirmed that in vivo the iCP9 system induces apoptosis only after CID administration and effectively ablates GFAP+ astrocytes.

A2B5+ cells = assay: Mixed cortical cultures infected with pLpPDGFR(iCP9)MG and exposed to CID; assay type: cell-based, rat; settings: four hours after CID, loss of viable cell morphology
Excerpt: To confirm the cell specificity of the PDGFR-α promoter system, rat-derived primary cortical cultures were infected with pLpPDGFR(iCP9)MG virus. […] This provides data supporting the oligoprecursor-specificity of the PDGFR-α promoter system.

293T cells = assay: CID-induced apoptosis in 293T cells transfected with iCP9 lentivirus or control virus; assay type: cell-based
Method: as §1

[8] = system: oligodendrocytes (MBP staining cells); assay: pLpMBP(iCP9)MG injected into corpus callosum, then CID; assay type: in vivo, rat; settings: after CID

Compound: CC[C@H](C(=O)N1CCCC[C@H]1C(=O)O[C@H](CCc1ccc(OC)c(OC)c1)c1cccc(OCC(=O)NCC(CNC(=O)COc2cccc([C@@H](CCc3ccc(OC)c(OC)c3)OC(=O)[C@@H]3CCCCN3C(=O)[C@@H](CC)c3cc(OC)c(OC)c(OC)c3)c2)CN(C)C)c1)c1cc(OC)c(OC)c(OC)c1 [CID]
- apoptosis level (ELISA absorption at 405 nm) [1]: Apoptosis levels decreased with dilution of virus
- apoptosis of infected CNS region [2]: resulting in apoptosis of the infected region of the CNS
- morphology of A2B5/EGFP, GFAP/EGFP and O4/EGFP positive cells ([3]; non-target cell types): appeared morphologically normal before and after CID exposure
- morphology of MBP-positive, EGFP-positive cells after CID ([3]; relative to cells not exposed to CID): appeared disrupted
- cell death of infected cells [4]: induced the cellular death of infected cells
- time to cell death of oligodendrocytes after CID [5]: 4 to 6 h
- EGFP positive cells after CID (GFAP+ cells (astrocytes) [6]): a decrease in EGFP positive cells
- anti-GFAP staining at area of viral infection (GFAP+ cells (astrocytes) [7]): GFAP+ cells were not detected at the area of viral infection
- TUNEL staining (GFAP+ cells (astrocytes) [7]; glycerol controls TUNEL negative): TUNEL positive staining at the site of virus infection
- apoptosis of A2B5+ cells (A2B5+ cells): identified undergoing apoptosis
- apoptosis of EGFP-positive cells after CID (293T cells; 293T cells, pLpCMV(iCP9)MG virus): rapidly underwent apoptosis
- EGFP-positive cells after CID, control virus (293T cells; cultures transfected with control virus pLpCMVXMG): EGFP-positive cells persisted
- anti-MBP staining at site of infection ([8]; glycerol controls normal): failed to stain with anti-MBP antibody at the site of infection
- TUNEL positive cells ([8]; not in glycerol controls): TUNEL positive cells were identified at the site of infection
